Experimental data reported in ChEMBL document CHEMBL1135154, “Optimization of the beta-aminoester class of factor Xa inhibitors. Part 1: P(4) and side-chain modifications for improved in vitro potency” (Bioorg Med Chem Lett, 2002).

Tests used:
Coagulation factor X = Coagulation factor X (Homo sapiens, UniProt P00742); experiment: In vitro inhibitory activity against human Coagulation factor Xa
Serine protease 1 = Serine protease 1 (Homo sapiens, UniProt P07477); experiment: In vitro inhibitory activity against human trypsin
Prothrombin [1] = target: T1, Prothrombin (Homo sapiens, UniProt P00734); experiment: In vitro inhibitory activity against human Coagulation factor IIa
Prothrombin [2] = target: T1, Prothrombin; experiment: Ratio of human Coagulation factor IIa to that of human Coagulation factor Xa was evaluated
[3] = Activated partial thromboplastin times (APTT) was determined in rat plasma; assay type: functional
[4] = Activated partial thromboplastin times (APTT) was determined in human plasma; assay type: functional
[5] = Activated partial thromboplastin times (APTT) was determined int human plasma; assay type: functional

Coagulation factor X, sequence (P00742 41-179 limits assumed): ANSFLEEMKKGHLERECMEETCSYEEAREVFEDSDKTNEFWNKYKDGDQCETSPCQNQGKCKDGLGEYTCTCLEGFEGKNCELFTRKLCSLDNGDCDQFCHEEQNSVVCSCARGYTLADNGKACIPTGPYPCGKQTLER
Coagulation factor X, sequence (P00742 235-488 limits assumed): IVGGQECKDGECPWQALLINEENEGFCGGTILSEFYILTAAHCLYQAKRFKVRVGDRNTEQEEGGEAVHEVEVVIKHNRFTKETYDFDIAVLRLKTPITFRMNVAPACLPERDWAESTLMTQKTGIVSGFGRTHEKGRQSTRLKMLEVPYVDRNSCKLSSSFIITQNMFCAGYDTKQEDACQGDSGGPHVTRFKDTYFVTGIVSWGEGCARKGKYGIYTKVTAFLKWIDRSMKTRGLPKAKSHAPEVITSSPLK
Serine protease 1, sequence (P07477 whole entry): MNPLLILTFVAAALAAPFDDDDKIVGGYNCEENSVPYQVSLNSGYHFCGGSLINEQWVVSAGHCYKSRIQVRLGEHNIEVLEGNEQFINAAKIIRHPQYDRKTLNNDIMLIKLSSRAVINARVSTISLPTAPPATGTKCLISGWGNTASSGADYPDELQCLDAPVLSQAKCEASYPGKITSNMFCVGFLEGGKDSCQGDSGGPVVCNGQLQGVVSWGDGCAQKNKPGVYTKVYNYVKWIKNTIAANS

Ki (Coagulation factor X) [nM]	Ki (Serine protease 1) [nM]	Ki (Prothrombin [1]) [nM]	Ki ratio (IIa/Xa) (Prothrombin [2])	SMILES	APTT [3] [µM]	APTT [4] [µM]	APTT [5] [µM]
> 1200	> 2900	> 4000	–	CCOC(=O)NCc1cccc(-c2ccc(C(=O)N[C@H](C)[C@@H](Cc3cccc(C(=N)N)c3)C(=O)OC)cc2)c1	–	–	–
20	230	> 3950	–	COC(=O)[C@@H](CNC(=O)c1ccc(-c2ccccc2)cc1)Cc1cccc(C(=N)N)c1	–	–	–
9.4	–	954	–	COC(=O)[C@H](Cc1cccc(C(=N)N)c1)[C@@H](/C=C/c1ccccc1)NC(=O)c1ccc(-c2ccccc2)cc1	–	–	–
11	75	709	–	COC(=O)[C@H](Cc1cccc(C(=N)N)c1)[C@@H](Cc1ccccc1)NC(=O)c1ccc(-c2ccccc2)cc1	–	–	–
–	90	> 4000	–	COC(=O)[C@H](Cc1cccc(C(=N)N)c1)[C@@H](C)NC(=O)c1ccc(-c2cccc(C(N)=O)c2)cc1	–	–	–
8	300	> 3950	–	COC(=O)[C@H](Cc1cccc(C(=N)N)c1)[C@H](NC(=O)c1ccc(-c2cccc(CN)c2)cc1)C(C)C	–	–	–
0.4	38	990	–	COC(=O)[C@H](Cc1cccc(C(=N)N)c1)[C@@H](CC(C)C)NC(=O)c1ccc(-c2cccc(CN)c2)cc1	–	–	–
5.3	69	–	~3250	COC(=O)[C@H](Cc1cccc(C(=N)N)c1)[C@@H](C)NC(=O)c1ccc(-c2ccccc2)cc1	5.05	3.9	–
4	36	650	–	COC(=O)[C@H](Cc1cccc(C(=N)N)c1)[C@@H](CC1CCCCC1)NC(=O)c1ccc(-c2cccc(CN)c2)cc1	–	–	–
2	42	> 4000	–	COC(=O)[C@H](Cc1cccc(C(=N)N)c1)[C@@H](C)NC(=O)c1ccc(-c2ccc(C(N)=O)cc2)cc1	–	–	–
21	67	810	–	COC(=O)[C@H](Cc1cccc(C(=N)N)c1)[C@@H](CCc1ccccc1)NC(=O)c1ccc(-c2ccccc2)cc1	–	–	–
69	–	> 4000	–	COC(=O)[C@H](Cc1cccc(C(=N)N)c1)[C@@H](C)NC(=O)c1ccc(-c2ccc(C(=O)O)cc2)cc1	–	–	–
1	95	2660	–	COC(=O)[C@H](Cc1cccc(C(=N)N)c1)[C@@H](C)NC(=O)c1ccc(-c2cccc(CN(C)C)c2)cc1	–	–	–
–	69	–	–	COC(=O)[C@H](Cc1cccc(C(=N)N)c1)[C@@H](C)NC(=O)c1ccc(-c2cccc(CN)c2)cc1	1.7	–	0.33
0.7	63	2100	–	CC[C@@H](NC(=O)c1ccc(-c2cccc(CN)c2)cc1)[C@@H](Cc1cccc(C(=N)N)c1)C(=O)OC	–	–	–
